Like-named read-outs stand apart in the source and are kept apart here.
Legend:
[1] = system: PC3 cells; conditions: for body weight: during each study
Experimental: The mice were housed and maintained in laminar flow cabinets under specific pathogen-free conditions in facilities approved by the University of Toronto Animal Research Ethics Board and in accordance with their regulations and standards by the Canadian Council on Animal Care (CCAC). Cells (1×10^6 PC3 cells with 100 μl martrigel solution (BD Biosciences, CA, USA)) were inoculated subcutaneously (sc) into 6-8 week-old male nude mice (Harlan Sprague Dawley, Inc.). After 14 days, the developing tumors were measured and mice randomly assigned to different treatment groups. Tumor volumes were determined by measurement of tumor length (L) and width (W) with a caliper and calculated according to the formula: V=(L×W^2)(π/6) twice a week. A tumor volume in the range of 100 mm^3 was required for a given mouse to be included. Using the xenograft model, tumor growth was determined for the control and each treatment mice. Mice were randomized into four groups; control (n=15), desmopressin alone (n=15), docetaxel alone (n=10) and desmopressin in combination with docetaxel (n=10). Control animals received only the saline vehicle. Desmopressin from Ferring Pharmaceuticals (Ferring Inc, CA, USA) was administrated in 2 doses, 0 h and 24 h. Mice received desmopressin intravenously in the saline at a final dose of 2 μg/ml/body weight (50 ng/0.3 ml saline dose). Mice were administrated docetaxel at a dose of 5 mg/kg intravenously as 3 weekly cycles. Desmopressin was administrated in 2 doses, 30 min prior to and 24 h after the administration of docetaxel. The animals that were administrated docetaxel or desmopressin in combination with docetaxel were sacrificed 35 days after cell inoculation. Control and desmopressin mice were monitored until tumor volume was approximately 1500 mm3 or day 49, whichever earlier, in order to evaluate antitumor effect of desmopressin in vivo study.
All experiments were performed in triplicates. The date represented mean±the standard error of the mean. Statistical analysis was done by Student's t test at a significance level of P<0.05. Analyses of the in vivo results were performed using either Student's t-testing or repeated measures one-way ANOVA techniques.

[2] = system: DU145 cells; test: Wound healing assay, DU145; format: cell-based; conditions: for effect on migration (wound closure) compared to control: 10 nM DTX alone, Desmopressin alone
Experimental: The motility inhibitory potential of desmopressin alone and/or in combination with docetaxel was accessed by wound healing assay according to previously described protocol^49, 50. DU145 cell were plated on 24-well plates at a concentration of 50,000 cells per well and were allowed to grow until they reached 90-100% confluence. After incubating the cells with 1 mg/L Mitomycin C (Sigma©) for 1 hour, a vertical scratch across each well was created; floating cells removed and cell media or media with treatment solutions were added. Images were obtained at zero-time point and after 24 hours of treatment. A computer-based microscopy imaging system with X200 magnification (Axiovision©) was used to measure wound healing of each well. Each experiment was carried out in duplicates and repeated three times

[3] = system: PC3 cells; test: Matrigel invasion assay, PC3; format: cell-based, human; conditions: 5 nM docetaxel, desmopressin 1 nM and 1 uM
Experimental: (§1) The migration of cells was measured using transwell insert plates (BD Biosciences, Bedford Mass.) according to the manufacture's protocol. Cells were subjected to 24 h of serum deprivation in DMEM/F12 supplemented with FBS. PC3 (5×10^4) cells were plated onto filters in 8.0-μm transwell insert plates and treated with these compounds, desmopressin (1 nM, 1 μM) and 5 nM docetaxel, in serum-free medium. The lower chamber also contained 10% FBS. Cells were allowed to migrate for 24 h. After the treatment, cells remaining on the top surfaces of the filter were removed using cotton swabs. The migrated cells that are attached to the lower surface of the filter were fixed in 4% formaldehyde at room temperature for 30 min, and then stained with crystal violet for 20 min. The migrated cells from random fields were chosen and counted using the computer-based microscopy imaging system. For the invasion assay, the same procedures were performed as described in the migration assay, except that the cells were plated onto 24-well matrigel-coated transwell plates (BD Biosciences, Bedford Mass.). The experiments were repeated 2 times in duplicates and statistical analysis performed.

[4] = system: pro-uPA, active uPA, uPAR, MMP-2 and MMP-9 in PC3 cells; test: Western blot of uPA-MMP pathway, PC3; format: cell-based, human
Experimental: (§2) Protein lysates from the desmopressin monotherapy dose response study (100 pM-1 uM), desmopressin monotherapy time point study (1 uM, 0-48 h) and combination study and concentrated media employed for Western blot analysis, were prepared as previously described.^14 The proteins were subjected to 10-12% SDS-PAGE and electrophoretically transferred onto a PVDF membrane at 100V/300 mA overnight using a semidry transfer apparatus (Bio-Rad Laboratories, Hercules, Calif.). After activation in methanol (100%), blots were incubated for 60 mins at room temperature in TBST containing 5% skimmed milk. After washing, the membranes were incubated with primary antibodies against Bax, bcl-2, p21 (waf1/cip1), p27 (kip1), cdk2, cdk4, uPA, uPAR, MMP-2 and MMP-9 (1:100-200, Santacruz Biotechnology, Santacruz, Calif., USA). After incubation with respective primary antibody, the membrane was washed with TBST 3 times for 5 min, then incubated with appropriate secondary antibody for 1 h at room temperature and washed with TBST 3 times for 5 min. Protein detection was performed with enhanced chemiluminescence Western blotting regents (Amersham Pharmacia Biotech, Buckinghamshire, UK).

[5] = system: PC3 cells; test: Flow cytometry cell cycle analysis (BrdU labeling), PC3; format: cell-based, human
Experimental: To analyze cell cycle profiles, cells were plated at a density of 1×10^6 per 10 cm dish. Asynchronously growing cells were pulse labeled with […] bromodeoxyuridine (BrdU) for 2 h with or without prior treatment of the antioxidants at the end of 24 h. Cells were then harvested, fixed with 70% ethanol, treated with 0.1% HCl and heated for 10 min at 90° C. to expose the labeled DNA. Cells were stained with anti-BrdU-conjugated FITC (Becton-Dickinson) and counterstained with propidium iodide, and then allowed to incubate for 30 mins on ice. Samples were filtered through a nylon mesh. Cell cycle analysis was carried out on the FACS Calibur flow cytometer using the Cell Quest Pro software package (Becton-Dickinson, CA, USA). The experiments were repeated 3 times in triplicates and statistical analysis performed as mentioned below.

[6] = system: PC3 cells; test: Transwell cell migration assay, PC3; format: cell-based, human; conditions: PC3, 24 h; desmopressin 1 nM and 1 μM; 5 nM docetaxel in combination
Experimental: as §1

[7] = system: cyclin A, cyclin B, CDK2, CDK4, p21(waf1/cip1), p27(kip1), Bax, Bcl-2, PARP, Caspase 3 in PC3 cells; test: Western blot of cell cycle and apoptosis proteins, PC3; format: cell-based, human
Experimental: as §2

[8] = system: DU145 cells; test: DU145 xenograft model in athymic nude mice; format: in vivo; conditions: day 55 post inoculation
Experimental: 6-week old male athymic nude mice (Charles river, QC, Canada) were used to evaluate the effect of combination therapy on DU145 tumor growth in vivo. […] Following 2 weeks of housing, 1×10^6 DU145 cells per animal in 100 μL matrigel solution (BD Bioscience, CA, USA) were inoculated subcutaneously, according to procedure described by Fridman et al (51). After 14 days following inoculation, body weight and tumor size were measured, and mice were randomly assigned to different treatment groups. Groups included control (sham treatments), DTX (5 mg/kg body weight) intraperitoneally, Desmopressin (2 μg/ml/body weight) intravenously 30 minutes prior to IP injection and 24 hours later or combination therapy (n=4 per group). Each group received treatment once every other week for a total of 3 treatments. Animal weight and tumor measurements were assessed regularly. Tumor size was calculated by length (L) and width (W) measured with caliper according to the following formula: V=(L×W2) ( […] /6).
Two weeks following the last treatment, mice were euthanized; tumors were excised, measured directly with caliper and sent for histological analysis.
Statistics: Tumor volume calculated during the treatment period were compared using repeated measures one-way ANOVA test (SPSS©). Final tumor volume and body weight measurements were compared separately using one-way ANOVA test.

[9] = system: PC3 cells; test: MTS cell proliferation assay, PC3; format: cell-based, human; conditions: PC3, 72 h; docetaxel 0-100 nM; desmopressin 1 nM-1 μM; combination desmopressin (1 nM, 1 μM) and 5 nM docetaxel
Experimental: PC3 human prostate carcinoma cells were obtained from the American Type Culture Collection (Rockville, Md., USA). Cells were cultured in DMEM/F12 medium (Invitrogen, ON, Canada) with 10% fetal bovine serum (FBS; Gibco, NY, USA), 100 IU/ml penicillin, 100 μg/ml streptomycin and 0.3 mg/ml 1-glutamine, and maintained at 37° C. in a humidified atmosphere of 5% CO2 in air. Cells were grown to 80% confluence in 10-cm tissue culture plates.
Cell proliferation was determined by MTS assay as previously described.^14 Cells (5×10^3/well) were plated using 96 well plates. After cultivation for 24 h, a range of concentration of desmopressin (100 pM-1 μM) and/or Docetaxel (1 nM-100 nM) were added and culture continued for up to 72 h. Cell viability was assessed by incubation with MTS for 2 hours and resulting absorbance measured at 595 nm using an ELISA plate reader. In the combination studies, varying dose of each agents were tested. The experiments were repeated 3 times in triplicates and statistical analysis performed.

[10] = dose response study 100 pM-1 uM

`NC(=O)CC[C@@H]1NC(=O)[C@H](Cc2ccccc2)NC(=O)[C@H](Cc2ccc(O)cc2)NC(=O)CCSSC[C@@H](C(=O)N2CCC[C@H]2C(=O)N[C@H](CCCN=C(N)N)C(=O)NCC(N)=O)NC(=O)[C@H](CC(N)=O)NC1=O` [desmopressin, 1-desamino-8-D-arginine vasopressin] was tested, and the mean tumor volume ([1]; PC3 xenograft, nude mice, day 35 post tumor inoculation, desmopressin 2 μg/ml/body weight i.v.) was 642 mm3, the body weight ([1]; PC3 xenograft, nude mice) was “consistently maintained their body weight” and the tolerability of treatment ([1]; PC3 xenograft, nude mice, intravenous injection) was “well tolerated”. For the same compound, the “tumor growth / tumor size versus control (and docetaxel alone)” value ([1]; PC3 xenograft, nude mice, docetaxel 5 mg/kg i.v., desmopressin 2 μg/ml/body weight i.v.) was “significantly slower rate of tumor development”, the “effect on migration (wound closure) compared to control” value ([2]; DU145, 24 hours) was “no statistical significant effect” and the “cell invasion, matrigel invasion assay” value [3] was “significantly inhibition of cell invasion”. For the same compound, the “expression of MMP-2” value [4, 10] was “reduced in a dose dependent manner”, the “expression of MMP-9” value [4, 10] was “reduced in a dose dependent manner” and the “expression of active uPA” value [4, 10] was “reduced in a dose dependent manner”. For the same compound, the “expression of precursor pro-uPA” value [4, 10] was “reduced in a dose dependent manner”, the “expression of uPAR” value [4, 10] was “unaltered” and the “expression of MMP-2” value ([4]; time point study, 1 μM, 0-48 h) was “reduced in a time dependent manner”. The “expression of MMP-9” value ([4]; time point study, 1 μM, 0-48 h) was “reduced in a time dependent manner”, the “expression of uPA” value ([4]; time point study, 1 μM, 0-48 h) was “reduced in a time dependent manner” and the “expression of uPAR” value ([4]; time point study, 1 μM, 0-48 h) was “not altered”. For the same compound, the cell cycle distribution ([5]; monotherapy) was “did not alter cell cycle distribution”, the “cell migration, transwell plates” value [6] was “significantly inhibited cell migration” and the “expression of (total) Caspase 3” value [7] was “did not reduce the expression”. The “expression of PARP” value [7] was “did not reduce the expression”, the “expression of bcl-2” value [7] was “did not reduce the expression” and the “average tumor size, final direct measurement of excised tumors” value [8] was 1597±681 mm3. The “cell proliferation / cell viability (MTS), relative to untreated control cells” value [9] was “significantly reduced cell proliferation”.
For `CC(=O)O[C@@]12CO[C@@H]1C[C@H](O)[C@@]1(C)C(=O)[C@H](O)C3=C(C)[C@@H](OC(=O)[C@H](O)[C@@H](NC(=O)OC(C)(C)C)c4ccccc4)C[C@@](O)([C@@H](OC(=O)c4ccccc4)[C@H]21)C3(C)C` [docetaxel], the body weight ([1]; PC3 xenograft, nude mice) was “consistently maintained their body weight”, the tolerability of treatment ([1]; mouse, in vivo, iv) was “well tolerated” and the “effect on migration (wound closure) compared to control” value ([2]; DU145, 24 hours) was “migration inhibitory effect”. For the same compound, the “in vitro wound closure” value ([2]; DU145, 24 hours, DTX 10 nM, alone or combined with 1 μm Desmopressin) was 48.9%, the “cell kill in wound healing assay” value ([2]; DU145, DTX concentration of 100 μM) was “significant cell kill” and the “cell invasion, matrigel invasion assay” value [3] was “significantly inhibition of cell invasion”. For the same compound, the “proportion of cells in G2 phase” value ([5]; 5 nM docetaxel, alone or with 1 nM/1 μM desmopressin) was “significant increase in the proportion of cells in G2 phase”, the “average tumor size, final direct measurement of excised tumors” value [8] was 1330±550 mm3 and the “cell proliferation / cell viability (MTS), relative to untreated control cells” value [9] was “decreased cell viability in a dose dependent manner”.
